ChEMBL document CHEMBL6096687, “In Vivo Stability Improvement of Astatobenzene Derivatives by Introducing Neighboring Substituents” (J Med Chem, 2025)

Experiments:
[1] = Stability in mouse plasma assessed as parent compound remaining measured after 1 hrs by TLC analysis; format: ADME, cell-free; conditions: read-out: Stability
[2] = In vivo stability in male ddY mouse stomach assessed as decrease in radioactivity at 37 kBq, iv measured after 10 to 240 mins by autowell-gamma counter analysis; format: ADME, organism-based; conditions: time 10-240 min
[3] = In vivo stability in male ddY mouse thyroid gland assessed as decrease in radioactivity at 37 kBq, iv measured after 10 to 240 mins by autowell-gamma counter analysis; format: ADME, organism-based; conditions: time 10-240 min
[4] = Drug accumulation in male ddY mouse liver at 37 kBq, iv measured after 10 to 240 mins by autowell-gamma counter analysis; format: ADME, organism-based; conditions: in vivo, time 10-240 min
[5] = Drug accumulation in male ddY mouse intestine at 37 kBq, iv measured after 10 to 240 mins by autowell-gamma counter analysis; format: ADME, organism-based; conditions: in vivo, time 10-240 min
[6] = Drug accumulation in male ddY mouse kidney at 37 kBq, iv measured after 10 to 240 mins by autowell-gamma counter analysis; format: ADME, organism-based; conditions: in vivo, time 10-240 min
[7] = In vivo metabolic stability in male ddY mouse urine assessed as intact compound at 37 kBq, iv measured after 1 hrs by RP-HPLC analysis; format: ADME, organism-based; conditions: read-out: Stability
Albumin = Albumin (Homo sapiens, UniProt P02768); assay: Binding affinity to human serum albumin assessed as binding constant by ITC analysis; format: ADME; conditions: isolated protein
Albumin, sequence (P02768 whole entry): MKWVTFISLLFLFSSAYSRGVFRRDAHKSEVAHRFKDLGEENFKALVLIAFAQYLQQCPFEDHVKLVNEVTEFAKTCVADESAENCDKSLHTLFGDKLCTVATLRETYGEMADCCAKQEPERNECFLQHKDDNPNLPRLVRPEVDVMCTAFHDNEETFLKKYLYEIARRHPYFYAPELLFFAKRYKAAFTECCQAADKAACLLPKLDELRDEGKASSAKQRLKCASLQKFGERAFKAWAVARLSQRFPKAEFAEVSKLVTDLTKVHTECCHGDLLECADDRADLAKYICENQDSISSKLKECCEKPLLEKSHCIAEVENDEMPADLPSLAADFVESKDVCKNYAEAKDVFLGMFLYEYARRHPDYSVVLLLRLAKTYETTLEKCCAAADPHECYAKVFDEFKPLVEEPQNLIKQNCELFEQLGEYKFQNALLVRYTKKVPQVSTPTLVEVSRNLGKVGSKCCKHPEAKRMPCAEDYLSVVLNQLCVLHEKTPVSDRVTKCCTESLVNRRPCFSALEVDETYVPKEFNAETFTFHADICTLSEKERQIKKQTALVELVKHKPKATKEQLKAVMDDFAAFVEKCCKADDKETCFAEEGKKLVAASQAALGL

SMILES | remaining at 1 h [1] | Stability [2] | Stability [3] | Drug uptake [4] | Drug uptake [5] | Drug uptake [6] | remaining at 1 h [7] | Kb (Albumin)
COCOCc1cc(C(=O)NCC(=O)O)cc(COCOC)c1[125I] | 92.9% | Stable | Stable | – | – | – | – | –
COCOCc1cc(C(=O)NCC(=O)O)cc(COCOC)c1[211At] | 81.5% | Unstable | Unstable | – | – | – | – | –
O=C(O)CNC(=O)c1cc(CO)c([125I])c(CO)c1 | 95.8% | Stable | Stable | Active | Active | Active | – | –
O=C(O)CNC(=O)c1ccc([125I])cc1 | 98.4% | Stable | Stable | – | – | Active | – | –
CN(C)C(=O)c1cc(C(=O)NCC(=O)O)cc(C(=O)N(C)C)c1[125I] | 92.7% | Stable | Stable | Active | Active | Active | 75.7% | –
CN(C)C(=O)c1cc(C(=O)NCC(=O)O)ccc1[211At] | 95.8% | Unstable | Unstable | – | – | – | – | –
CN(C)C(=O)c1cc(C(=O)NCC(=O)O)cc(C(=O)N(C)C)c1[211At] | 92% | Stable | Stable | Active | Active | – | 86.4% | –
O=C(O)CNC(=O)c1cc(CO)c([211At])c(CO)c1 | 88.7% | Unstable | Unstable | – | – | – | – | –
O=C(O)CNC(=O)c1ccc([211At])cc1 | 81.4% | Unstable | Unstable | – | – | – | – | –
CN(C)C(=O)c1cc(C(=O)NCC(=O)O)ccc1[125I] | 96.9% | – | – | Active | Active | Active | – | –
O=C(O)CNC(=O)c1ccccc1 [HIPPURIC ACID] | – | – | – | – | – | – | – | 1000 M⁻¹
